Data published in US20080213341A1, “Butyric Acid Esters of Carbohydrates and Carbohydrate Polyols” (priority 2005, published 2008).
Read-outs that look alike come from different tables or passages of the source.

Assays:
[1] = oral administration / uptake via food; cited from earlier work
[2] = tested on: colon cancer; settings: orally administered; cited from earlier work
[3] = tested on: intestinal bacteria of the human large intestine; assay: In vitro fermentation with intestinal bacteria of the human large intestine (feces suspension); format: in vitro ADME; settings: for x-fold increase in the butyrate concentration in the fermentation medium in comparison to the nonesterified carbohydrate or carbohydrate polyol: in vitro fermentation; for butyrate release/formation (in words): in vitro fermentation with human intestinal bacteria; for increase of the butyrate in the fermentation broths: after a short fermentation time
Method: It was investigated in in vitro fermentation experiments with intestinal bacteria of the human large intestine whether butyric acid esters listed above are hydrolyzed and metabolized by bacteria of the large intestine or their enzymes and butyrate is released in the […]. The following medium was used for in vitro fermentation experiments: [table] 9 ml of the […] medium described above were treated with 0.5% (w/v) of the butyric acid ester to be tested and 0.2% (w/v) of taurocholic acid. This medium was subsequently inoculated with 1 ml of a 10% strength feces suspension (mixed feces of three subjects) in anaerobic 50 mmol/l phosphate buffer, pH 7.0, to which 0.5 g/l of cysteine/HCl had been added as a reductant. Hungate tubes were incubated at 37° C. with shaking for 72 h, samples were taken at different times and these were investigated for short-chain fatty acids, lactic acid and pH. The extent of the metabolization of the test substances was carried out by means of the determination of the release of butyrate.

[4] = 0.5% (w/v) substrate, human feces suspension, 37° C., 72 h

Q: Which “cleavage / absorption in the small intestine” value [1] does the source give for `CCCC(=O)O` [butyrate, butyric acid] here?
A: The value was “rapidly and completely absorbed in the small intestine”.

Q: Which results are given for `CCCC(=O)OCC(COC(=O)CCC)OC(=O)CCC` [tributyrin]?
A: cleavage / absorption in the small intestine [1]: rapidly cleaved in the anterior small intestine; activity in the prevention of colon cancer [2]: inactive

Q: With Heptabutyryldiacetylisomalt as the compound, how does the “g of butyrate/g of substrate” value [3, 4] read?
A: The value was 0.1 g of butyrate/g of substrate.

Q: What about the “g of butyrate/g of substrate” value ([3]; 0.5% (w/v) substrate, human feces suspension, 37° C., 72 h, listed as heptabutyryldiacetylisomalt) of the same compound?
A: Its value is “about 0.1 g of butyrate/g of substrate”.

Q: What about the “x-fold increase in the butyrate concentration in the fermentation medium in comparison to the nonesterified carbohydrate or carbohydrate polyol” value (“x-fold increase” below) ([3]; 72 h) of the same compound?
A: Its value is 0.4 x-fold.

Q: Which “g of butyrate/g of substrate” value [3, 4] does the source give for Hexabutyrylsorbitol here?
A: Its value is 0.2 g of butyrate/g of substrate.

Q: And the “x-fold increase” value ([3]; 72 h)?
A: Its value is 0.8 x-fold.

Q: For Isomalt [reference compound], which “g of butyrate/g of substrate” value [3, 4] is on record?
A: The value was 0.2 g of butyrate/g of substrate.

Q: And the “g of butyrate/g of substrate” value ([3]; 0.5% (w/v) substrate, human feces suspension, 37° C., 72 h, listed as isomalt)?
A: The value was “approximately 0.2 g of butyrate/g of substrate”.

Q: Which results are given for Octabutyrylisomalt?
A: g of butyrate/g of substrate [3, 4]: 0.1 g of butyrate/g of substrate; g of butyrate/g of substrate ([3]; 0.5% (w/v) substrate, human feces suspension, 37° C., 72 h, listed as octabutyrylisomalt): about 0.1 g of butyrate/g of substrate; x-fold increase in the butyrate concentration in the fermentation medium in comparison to the nonesterified carbohydrate or carbohydrate polyol ([3]; 72 h): 0.5 x-fold

Q: Which results are given for Pentabutyrylisomalt?
A: g of butyrate/g of substrate [3, 4]: 0.2 g of butyrate/g of substrate; x-fold increase in the butyrate concentration in the fermentation medium in comparison to the nonesterified carbohydrate or carbohydrate polyol ([3]; 72 h): 1.3 x-fold

Q: Which results are given for Pentabutyrylxylitol?
A: g of butyrate/g of substrate [3, 4]: 0.4 g of butyrate/g of substrate; butyrate release/formation (in words) [3]: Large amounts of butyrate were also released; x-fold increase in the butyrate concentration in the fermentation medium in comparison to the nonesterified carbohydrate or carbohydrate polyol ([3]; 72 h): 1.5 x-fold

Q: For Tetrabutyryldiacetylsorbitol, which “g of butyrate/g of substrate” value [3] is on record?
A: Its value is 0.3 g of butyrate/g of substrate.

Q: Which “g of butyrate/g of substrate” value [3, 4] does the source give for Tetrabutyrylsorbitol here?
A: Its value is 0.7 g of butyrate/g of substrate.

Q: What about the “increase of the butyrate in the fermentation broths” value [3] of the same compound?
A: The value was “strong increase”.

Q: What about the “butyrate release/formation (in words)” value [3] of the same compound?
A: The value was “high butyrate formation”.

Q: And the “x-fold increase” value ([3]; 72 h)?
A: The value was 2.7 x-fold.

Q: And the “x-fold increase” value ([3]; 72 h, listed as tetrabutyrylsorbitol)?
A: The value was “more than twofold”.

Q: For Tetrabutyrylxylitol, which “g of butyrate/g of substrate” value [3, 4] is on record?
A: The value was 0.7 g of butyrate/g of substrate.

Q: And the “butyrate release/formation (in words)” value [3]?
A: Its value is “high butyrate formation”.

Q: What about the “x-fold increase” value ([3]; 72 h) of the same compound?
A: The value was 2.5 x-fold.

Q: What about the “x-fold increase” value ([3]; 72 h, listed as tetrabutyrylxylitol) of the same compound?
A: The value was “more than two-fold”.

Q: Which “g of butyrate/g of substrate” value [3, 4] does the source give for Tributyrylsorbitol here?
A: Its value is 0.7 g of butyrate/g of substrate.

Q: And the “increase of the butyrate in the fermentation broths” value [3]?
A: The value was “strong increase”.

Q: And the “butyrate release/formation (in words)” value [3]?
A: The value was “high butyrate formation”.

Q: What about the “x-fold increase” value ([3]; 72 h) of the same compound?
A: The value was 2.8 x-fold.

Q: What about the “x-fold increase” value ([3]; 72 h, listed as tributyrylsorbitol) of the same compound?
A: The value was “more than twofold”.

Q: For Tributyrylxylitol, which “g of butyrate/g of substrate” value [3, 4] is on record?
A: Its value is 0.6 g of butyrate/g of substrate.

Q: And the “butyrate release/formation (in words)” value [3]?
A: The value was “Large amounts of butyrate were also released”.

Q: And the “x-fold increase” value ([3]; 72 h)?
A: The value was 2.2 x-fold.
